Reference: US20220175818A1, “Inhibition of Monoamine Oxidase Subtype A (MAOA) Mitigates Cardiovascular Calcification” (The Brigham and Women's Hospital, Inc., priority 2019, published 2022)

Test system: VICs
Test: Alizarin red calcification assay of VICs grown in osteogenic media with MAOA inhibitors
Assay type: cell-based, human
Conditions: VICs grown in OM, 21 days, inhibitor 10 μM, PBS control, n=3, FIG. 7E
Experimental: Representative images, n=3 donors.
Osteogenic, chondrogenic, and adipogenic differentiation assays were conducted for samples of protein, RNA, and media collected at 0, 1, 2, and 3 weeks after changing media from growth media to specialized media. Alizarin Red. alizarin red (AR) 2% (Thermo Fisher Scientific), Alcian blue (AB) 1%, and oil red O (ORO) (Abcam) were used for osteogenic, chondrogenic, and adipogenic assays respectively. Cells plated in 48 or 96 well plates were washed with PBS and fixed for 15 minutes at room temperature with 10% formalin for AR and AB and 4% PFA for ORO. After washing with Milli-Q water, stains were added. […] The incubation times were 20 minutes (AR), 1 hour (AB), and 15 minutes in room temperature (ORO). Washes with Milli-Q water followed for the AR (3×) and AB (4×) stains. […] Pictures were taken using an iPhone7 (Apple) and the amount of dye released was quantified by spectrophotometry at 550 nm.

Compound | calcification (Alizarin red staining)
Cc1ccc2c(c1)c1c3n2CCNC3CCC1 (centres unmarked) [pirindole] | reduction of calcification
O=C(NCCN1CCOCC1)c1ccc(Cl)cc1 [moclobemide, Moclobemide] | reduction of calcification
